Measured values taken from patent US10058579B2, “Dietary supplements containing extracts of cinnamon and methods of using same to promote enhanced sirtuin, cell and telomere integrity” (IN Ingredients, Inc., priority 2010, dated 2018).

Test system: SIRT family mRNA expression
Experiment: sirtuin (SIRT family) mRNA expression in rat primary enterocytes, quantitative PCR
Type: cell-based
Details: 2 μg/ml; enterocytes of chow-fed rats; FIG. 2
Text: The baseline value for the effects of a high fructose diet on SIRT family mRNA expression is established. The experimental protocols parallel those of Firestein, R., et al., PLoS ONE, 2008; 3(4): e2020. doi:10.1371/journal.pone.0002020 except using Wistar rats. The animals fed ad libitum with water and either a standard chow diet or a high fructose diet. Primary enterocytes are obtained from animals (6 months of age) following sacrifice and rapid harvest of the intestine. The isolated intestine is thoroughly flushed with ice cold PBS.
Total RNA is isolated from primary enterocyte tissue obtained as above, adipose tissue (obtained by biopsy), or liver (obtained by biopsy) using TR1 reagent (Applied Biosystems, Austin, Tex.), according to the manufacturer's guidelines. The resulting total RNA is subjected to DNase treatment using RNase-free DNase (Ambion). The purity of isolated RNA is measured by a NanoDrop spectrophotometer. A set concentration of RNA is reverse transcribed into cDNA using SuperScript II RT, and quantitative PCR is performed on ABI Prism 7500 Sequence Detection System (Applied Biosystems, Carlsbad, Calif.) using SYBR Green PCR Master Mix (Applied Biosystems, Carlsbad, Calif.).
The level of sirtuin mRNA expression is assayed following exposure of rat primary enterocytes to the anthocyanin delphinidin. […]

Oc1cc(O)c2cc(O)c(-c3cc(O)c(O)c(O)c3)[o+]c2c1 [delphinidin]
increase of sirtuin gene expression as measured by mRNA levels over control: 2-3 fold
